Data: article PMC6442119, “The antitumor activity of CYB-L10, a human topoisomerase IB catalytic inhibitor” (Journal of Enzyme Inhibition and Medicinal Chemistry, 2019)

Experiments:
Experiment in all cases: MTT assay
RC0.1 = details: Homo sapiens, 72 h, read-out: GI50 ± SD
DU-145 = type: cell-based; details: Homo sapiens; Parental cell line DU-145, MTT, 72 h
MCF-7 = type: cell-based; details: Homo sapiens, MCF7; Parental cell line MCF-7, MTT, 72 h

| Compound | GI50 (RC0.1) [nM] | GI50 (DU-145) [nM] | GI50 (MCF-7) [nM] |
| --- | --- | --- | --- |
| CC[C@@]1(O)C(=O)OCc2c1cc1n(c2=O)Cc2cc3ccccc3nc2-1 [CPT, Camptothecin, reference compound] | 7530 ± 1880 | 19 ± 9 | – |
| COc1cccc2c1C(=O)c1c(O)c3c(c(O)c1C2=O)C[C@@](O)(C(=O)CO)C[C@@H]3O[C@H]1C[C@H](N)[C@H](O)[C@H](C)O1 [DOX, doxorubicin, reference compound] | – | – | 150 ± 3 |
